Source: US10336762B2 (priority 2017, dated 2019)
Read-outs that look alike come from different tables or passages of the source.

Columns and labels:
TNFα = test: cells; assay type: cell-based, human; settings: Homo sapiens, Monocyte, LPS-stimulated human monocytes, read-out: EC50 TNF
IRAK4 enzyme = IRAK4 enzyme (Homo sapiens (Human), UniProt Q9NWZ3); test: biochemical; assay type: biochemical; settings: IRAK4 enzyme, 500 μM ATP
Sequence of IRAK4 enzyme (Q9NWZ3 whole entry): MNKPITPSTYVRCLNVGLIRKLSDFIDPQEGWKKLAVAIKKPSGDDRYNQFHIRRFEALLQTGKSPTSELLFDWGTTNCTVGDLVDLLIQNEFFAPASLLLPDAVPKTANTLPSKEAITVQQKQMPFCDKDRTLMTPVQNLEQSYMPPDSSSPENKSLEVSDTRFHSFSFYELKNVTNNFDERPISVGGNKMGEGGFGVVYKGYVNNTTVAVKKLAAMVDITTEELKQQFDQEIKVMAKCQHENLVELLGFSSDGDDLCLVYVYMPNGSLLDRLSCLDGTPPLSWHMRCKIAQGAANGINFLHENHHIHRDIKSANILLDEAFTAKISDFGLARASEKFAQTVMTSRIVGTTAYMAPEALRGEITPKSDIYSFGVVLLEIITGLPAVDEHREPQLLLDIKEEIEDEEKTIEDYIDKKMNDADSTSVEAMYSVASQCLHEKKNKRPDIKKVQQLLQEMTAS

SMILES	EC50 (TNFα; TNFα content) [µM]	IC50 (IRAK4 enzyme; TR-FRET (HTRF)) [µM]	IC50 (IRAK4 enzyme; TR-FRET) [µM]	EC50 (TNFα; TNFα by TR-FRET) [µM]
CC(C)(O)[C@H](F)CNC(=O)c1cnc(-c2ccc3cc(C#N)cnn23)cc1Nc1cccc(OC(F)F)c1 [Example 608, (R)-6-(3-cyanopyrrolo[1,2-b]pyridazin-7-yl)-4-((3-(difluoromethoxy)phenyl)amino)-N-(2-fluoro-3-hydroxy-3-methylbutyl) nicotinamide]	0.123	0.001		
CC(C)(O)[C@H](F)CNC(=O)c1cnc(-c2ccc3cc(C#N)cnn23)cc1NN1CCOCC1 [Example 44, (R)-6-(3-cyanopyrrolo[1,2-b]pyridazin-7-yl)-N-(2-fluoro-3-hydroxy-3-methylbutyl)-4-(morpholinoamino) nicotinamide]	> 10		6.63	
C#CCNC(=O)c1cnc(-c2ccc3cc(C#N)cnn23)cc1NC12CCC(O)(CC1)CC2 [Example 623, 6-(3-cyanopyrrolo[1,2-b]pyridazin-7-yl)-4-((4-hydroxybicyclo[2.2.2]octan-1-yl)amino)-N-(prop-2-yn-1-yl) nicotinamide]	0.063	< 0.001		
COC(=O)NC[C@@H]1CCCN1c1ccc(Nc2cc(-c3ccc4cc(C#N)cnn34)ncc2C(=O)NC[C@@H](F)C(C)(C)O)cn1 [Example 879, methyl (((S)-1-(5-((2-(3-cyanopyrrolo[1,2-b]pyridazin-7-yl)-5-(((R)-2-fluoro-3-hydroxy-3-methylbutyl)carbamoyl)pyridin-4-yl)amino)pyridin-2-yl)pyrrolidin-2-yl)methyl)carbamate]			0.001	0.225
CNC(=O)c1cnc(-c2ccc3cc(C#N)cnn23)cc1NC12CCC(O)(CC1)CC2 [Example 361, 6-(3-cyanopyrrolo[1,2-b]pyridazin-7-yl)-4-((4-hydroxybicyclo[2.2.2]octan-1-yl)amino)-N-methylnicotinamide]	0.05		0.001	
CC(C)(O)[C@H](F)CNC(=O)c1cnc(-c2ccc3cc(C#N)cnn23)cc1NC12CCC(NC(=O)C3CC3)(CC1)CC2 [Example 281, (R)-6-(3-cyanopyrrolo[1,2-b]pyridazin-7-yl)-4-((4-(cyclopropanecarboxamido)bicyclo[2.2.2]octan-1-yl)amino)-N-(2-fluoro-3-hydroxy-3-methylbutyl) nicotinamide]	0.037		0.001	
CC(C)(O)[C@H](F)CNC(=O)c1cnc(-c2ccc3cc(C#N)cnn23)cc1NCc1cccnc1 [Example 170, (R)-6-(3-cyanopyrrolo[1,2-b]pyridazin-7-yl)-N-(2-fluoro-3-hydroxy-3-methylbutyl)-4-((pyridin-3-ylmethyl)amino) nicotinamide]	0.217		0.003	
N#Cc1cnn2c(-c3cc(NC45CCC(O)(CC4)CC5)c(C(=O)NCC4(CO)COC4)cn3)ccc2c1 [Example 711, 6-(3-cyanopyrrolo[1,2-b]pyridazin-7-yl)-4-((4-hydroxybicyclo[2.2.2]octan-1-yl)amino)-N-((3-(hydroxymethyl)oxetan-3-yl)methyl)nicotinamide]	0.231	0.002		
COC(=O)N1CCN(c2ccc(Nc3cc(-c4ccc5cc(C#N)cnn45)ncc3C(=O)NC[C@@H](F)C(C)(C)O)cn2)CC1 [Example 870, (R)-methyl 4-(5-((2-(3-cyanopyrrolo[1,2-b]pyridazin-7-yl)-5-((2-fluoro-3-hydroxy-3-methylbutyl)carbamoyl)pyridin-4-yl)amino)pyridin-2-yl)piperazine-1-carboxylate]			0.001	0.081
CC(C)(O)[C@H](F)CNC(=O)c1cnc(-c2ccc3cc(C#N)cnn23)cc1Nc1ccc(-c2cnoc2)nc1 [Example 967, (R)-6-(3-cyanopyrrolo[1,2-b]pyridazin-7-yl)-N-(2-fluoro-3-hydroxy-3-methylbutyl)-4-((6-(isoxazol-4-yl)pyridin-3-yl)amino) nicotinamide]			0.003	0.156
CC(C)(O)[C@H](F)CNC(=O)c1cnc(-c2ccc3cc(C#N)cnn23)cc1Nc1cnn(C2COC2)c1 [Example 43, (R)-6-(3-cyanopyrrolo[1,2-b]pyridazin-7-yl)-N-(2-fluoro-3-hydroxy-3-methyl-butyl)-4-((1-(oxetan-3-yl)-1H-pyrazol-4-yl)amino) nicotinamide]	0.03		< 0.001	
CCC(=O)c1cccc(Nc2cc(-c3ccc4cc(C#N)cnn34)ncc2C(=O)NC[C@@H](F)C(C)(C)O)c1 [Example 839, (R)-6-(3-cyanopyrrolo[1,2-b]pyridazin-7-yl)-N-(2-fluoro-3-hydroxy-3-methylbutyl)-4-((3-propionylphenyl)amino) nicotinamide]			0.001	0.307
Cc1nc(-c2ccc(Nc3cc(-c4ccc5cc(C#N)cnn45)ncc3C(=O)NC[C@@H](F)C(C)(C)O)cc2)no1 [Example 968, (R)-6-(3-cyanopyrrolo[1,2-b]pyridazin-7-yl)-N-(2-fluoro-3-hydroxy-3-methylbutyl)-4-((4-(5-methyl-1,2,4-oxadiazol-3-yl)phenyl)amino) nicotinamide]			0.001	0.081
CC(C)(O)[C@H](F)CNC(=O)c1cnc(-c2ccc3cc(C#N)cnn23)cc1Nc1ccc2cn[nH]c2c1 [Example 574, (R)-4-((1H-indazol-6-yl)amino)-6-(3-cyano-pyrrolo[1,2-b]pyridazin-7-yl)-N-(2-fluoro-3-hydroxy-3-methylbutyl) nicotinamide]	0.057	< 0.001		
CC(=O)NC12CC(Nc3cc(-c4ccc5cc(C#N)cnn45)ncc3C(=O)NC[C@@H](F)C(C)(C)O)(C1)C2 [Example 508, (R)-4-((3-acetamidobicyclo[1.1.1]pentan-1-yl)amino)-6-(3-cyanopyrrolo[1,2-b]pyridazin-7-yl)-N-(2-fluoro-3-hydroxy-3-methyl-butyl)nicotinamide]	0.022	< 0.001		
CN1CCC(C(=O)NC[C@H]2C[C@H](Nc3cc(-c4ccc5cc(C#N)cnn45)ncc3C(=O)NC[C@@H](F)C(C)(C)O)C2)CC1 [Example 794, 6-(3-cyanopyrrolo[1,2-b]pyridazin-7-yl)-N-((R)-2-fluoro-3-hydroxy-3-methylbutyl)-4-(((1r,3R)-3-((1-methylpiperidine-4-carboxamido)methyl)cyclo-butyl)amino)nicotinamide]	0.997	0.002		
CC(C)Nc1cc(-c2ccc3cc(C#N)cnn23)ncc1C(=O)NC[C@@H](F)C(C)(C)F [Example 531, (R)-6-(3-cyanopyrrolo[1,2-b]pyridazin-7-yl)-N-(2,3-difluoro-3-methylbutyl)-4-(isopropylamino)nicotinamide]	0.034	< 0.001		
N#CCNC(=O)c1cnc(-c2ccc3cc(C#N)cnn23)cc1NC12CCC(O)(CC1)CC2 [Example 348, N-(cyanomethyl)-6-(3-cyanopyrrolo[1,2-b]pyridazin-7-yl)-4-((4-hydroxybicyclo[2.2.2]octan-1-yl)amino) nicotinamide]	0.019		< 0.001	
CC(C)(O)[C@H](F)CNC(=O)c1cnc(-c2ccc3cc(C#N)cnn23)cc1N[C@H]1C[C@H](CNC(=O)C2CC(F)(F)C2)C1 [Example 940, 6-(3-cyanopyrrolo[1,2-b]pyridazin-7-yl)-4-(((1r,3R)-3-((3,3-difluorocyclobutane-1-carboxamido)methyl)cyclobutyl)amino)-N-((R)-2-fluoro-3-hydroxy-3-methylbutyl)nicotinamide]			< 0.001	0.044
